Patent publication US11166924B2, “N-methyl-d-aspartate receptor allosteric modulators and methods for their use” (Qingdao Primedicine Pharmaceutical Company, Ltd., priority 2016, dated 2021)

Columns and labels:
GluN1/GluN2B NMDARs = molecular target: T1, GluN1/GluN2B NMDARs (Rattus norvegicus, UniProt P35439+Q00960); experiment: Whole-cell patch clamp recordings in HEK293 cells transfected with GluN1/GluN2B; format: cell-based; conditions: for activation at 50 µM: 50 μM (footnote *)
T1 construct: expressed in transfected cells; host or cells: HEK293
T1 sequence (Q00960 27-1482, other chains not shown): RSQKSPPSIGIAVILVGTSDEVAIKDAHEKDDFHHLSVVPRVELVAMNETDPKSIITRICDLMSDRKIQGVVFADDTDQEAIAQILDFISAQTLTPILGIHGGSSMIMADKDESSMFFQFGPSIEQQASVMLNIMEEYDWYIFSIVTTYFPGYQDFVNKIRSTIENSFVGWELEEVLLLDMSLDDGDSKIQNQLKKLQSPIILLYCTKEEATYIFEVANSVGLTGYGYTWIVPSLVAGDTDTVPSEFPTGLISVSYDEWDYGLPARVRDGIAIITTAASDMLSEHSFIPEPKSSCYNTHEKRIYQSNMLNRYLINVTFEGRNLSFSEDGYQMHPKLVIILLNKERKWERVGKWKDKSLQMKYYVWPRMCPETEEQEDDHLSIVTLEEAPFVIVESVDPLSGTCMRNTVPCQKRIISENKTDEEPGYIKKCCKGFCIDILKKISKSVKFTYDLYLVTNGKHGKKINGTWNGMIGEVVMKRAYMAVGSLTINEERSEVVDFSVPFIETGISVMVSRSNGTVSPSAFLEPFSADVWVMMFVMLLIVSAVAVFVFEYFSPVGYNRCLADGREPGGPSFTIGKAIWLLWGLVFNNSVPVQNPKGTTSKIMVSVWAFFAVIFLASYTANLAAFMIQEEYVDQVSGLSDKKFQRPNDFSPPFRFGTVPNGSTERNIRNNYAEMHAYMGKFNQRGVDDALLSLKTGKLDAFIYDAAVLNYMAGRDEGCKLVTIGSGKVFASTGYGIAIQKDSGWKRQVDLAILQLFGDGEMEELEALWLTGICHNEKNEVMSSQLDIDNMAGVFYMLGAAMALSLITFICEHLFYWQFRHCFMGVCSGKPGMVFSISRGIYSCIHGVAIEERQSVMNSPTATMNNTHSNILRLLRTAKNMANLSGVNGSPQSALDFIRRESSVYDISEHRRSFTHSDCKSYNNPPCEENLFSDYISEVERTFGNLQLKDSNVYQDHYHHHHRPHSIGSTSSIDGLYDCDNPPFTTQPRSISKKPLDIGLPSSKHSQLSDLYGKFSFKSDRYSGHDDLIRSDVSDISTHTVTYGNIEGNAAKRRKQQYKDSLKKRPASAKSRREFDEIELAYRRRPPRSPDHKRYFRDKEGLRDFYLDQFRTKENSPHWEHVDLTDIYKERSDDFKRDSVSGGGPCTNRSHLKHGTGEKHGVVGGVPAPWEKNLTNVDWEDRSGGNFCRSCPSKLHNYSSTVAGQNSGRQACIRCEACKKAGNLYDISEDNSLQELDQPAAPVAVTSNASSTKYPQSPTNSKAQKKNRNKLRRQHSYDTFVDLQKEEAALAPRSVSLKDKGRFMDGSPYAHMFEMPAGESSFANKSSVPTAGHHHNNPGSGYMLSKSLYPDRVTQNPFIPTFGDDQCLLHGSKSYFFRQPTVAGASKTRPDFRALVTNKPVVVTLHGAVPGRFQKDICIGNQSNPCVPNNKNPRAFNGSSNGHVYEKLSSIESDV

GluN1/GluN2A NMDARs = molecular target: T2, GluN1/GluN2A NMDARs (Rattus norvegicus, UniProt P35439+Q00959); experiment: Whole-cell patch clamp recordings in HEK293 cells transfected with GluN1/GluN2A; format: cell-based; conditions: for activation at 50 µM: 50 μM (footnote *); for Normalized Potentiation / EC50: Table 1; for Normalized Potentiation: positive modulation of GluN1/GluN2A NMDARs, concentration not given; for EC50: potentiation, read-out: EC50
T2 construct: expressed in transfected cells; host or cells: HEK293
T2 sequence (Q00959 23-1464, other chains not shown): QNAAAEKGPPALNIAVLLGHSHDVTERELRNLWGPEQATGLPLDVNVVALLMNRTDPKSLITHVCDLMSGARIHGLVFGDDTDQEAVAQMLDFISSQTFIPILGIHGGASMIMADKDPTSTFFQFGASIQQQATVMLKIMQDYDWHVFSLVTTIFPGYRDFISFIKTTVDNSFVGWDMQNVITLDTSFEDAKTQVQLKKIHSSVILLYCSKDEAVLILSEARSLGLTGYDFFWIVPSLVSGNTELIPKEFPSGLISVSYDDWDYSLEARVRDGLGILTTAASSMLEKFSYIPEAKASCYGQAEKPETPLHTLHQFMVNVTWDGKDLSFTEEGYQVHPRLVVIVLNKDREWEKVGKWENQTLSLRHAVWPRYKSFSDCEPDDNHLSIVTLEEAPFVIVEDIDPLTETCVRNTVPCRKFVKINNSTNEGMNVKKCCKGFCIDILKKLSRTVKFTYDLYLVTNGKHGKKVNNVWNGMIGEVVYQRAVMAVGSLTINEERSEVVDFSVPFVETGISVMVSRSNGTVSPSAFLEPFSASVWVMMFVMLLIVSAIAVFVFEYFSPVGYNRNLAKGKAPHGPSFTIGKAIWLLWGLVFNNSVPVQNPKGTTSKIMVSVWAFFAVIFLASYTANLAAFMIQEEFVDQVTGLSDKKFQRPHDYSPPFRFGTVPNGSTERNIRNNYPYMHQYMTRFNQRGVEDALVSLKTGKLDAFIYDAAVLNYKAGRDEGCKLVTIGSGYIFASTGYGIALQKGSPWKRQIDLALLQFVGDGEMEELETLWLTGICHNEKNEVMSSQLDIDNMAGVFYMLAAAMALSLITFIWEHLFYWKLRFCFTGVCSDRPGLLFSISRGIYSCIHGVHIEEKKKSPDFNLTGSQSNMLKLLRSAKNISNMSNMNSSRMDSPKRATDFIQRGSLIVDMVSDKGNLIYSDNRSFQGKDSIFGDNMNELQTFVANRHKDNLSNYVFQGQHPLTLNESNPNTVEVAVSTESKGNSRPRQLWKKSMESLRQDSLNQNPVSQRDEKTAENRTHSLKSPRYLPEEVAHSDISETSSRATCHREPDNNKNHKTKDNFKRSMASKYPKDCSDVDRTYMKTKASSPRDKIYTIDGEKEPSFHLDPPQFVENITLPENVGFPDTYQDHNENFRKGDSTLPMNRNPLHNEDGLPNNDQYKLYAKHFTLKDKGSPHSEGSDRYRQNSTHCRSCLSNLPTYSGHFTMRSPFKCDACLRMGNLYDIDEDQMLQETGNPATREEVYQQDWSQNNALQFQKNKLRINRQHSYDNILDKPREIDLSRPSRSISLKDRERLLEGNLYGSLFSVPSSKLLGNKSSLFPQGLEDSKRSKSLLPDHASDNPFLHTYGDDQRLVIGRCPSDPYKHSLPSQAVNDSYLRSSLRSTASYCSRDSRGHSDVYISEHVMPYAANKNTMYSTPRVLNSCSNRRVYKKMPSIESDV
Procedure: Cells were transfected with a combination of pcDNA3-CMV expression vectors, each of which expressed one of the rat recombinant (GluN2AWT, GluN1WT, GluN2BWT) subunits. The sequences of all plasmids were confirmed by automated DNA sequencing. Human Embryonic Kidney 293 (HEK293 cells) were cultured in Dulbecco's Modified Eagle's Medium (DMEM) (Invitrogen) supplemented with 10% fetal bovine serum (FBS). When HEK293 cells achieved 90% confluence, plasmids of either GluN1 & GluN2A or GluN1 & GluN2B were co-transfected into the cells using Lipofectamine 2000 (Invitrogen, 11668019) according to manufacturer's instructions. HEK293 cells were then maintained in the 37° C. incubator with […] and 5% CO2 for 48 hrs before being used in experiments. The transfection ratios for the NMDAR subunit combinations were all 1:1 (GluN1/GluN2A or GluN1/GluN2B).
Whole cell patch-clamp recordings were performed under voltage-clamp mode using an Axopatch 200B or 1D patch-clamp amplifier (Molecular Devices). Whole-cell currents were recorded at a holding potential of −60 mV unless indicated elsewhere, and signals were filtered at 2 kHz, digitized at 10 kHz (Digidata 1322A). Recording pipettes (3-5 MΩ) were filled with intracellular solution containing (mM): CsCl 140, HEPES 10, Mg-ATP 4, QX-314 5, pH 7.20; osmolarity, 290-295 mOsm. BAPTA (10 mM) was added in the intracellular solution (unless otherwise specified). The coverslips were continuously superfused with extracellular solution containing (mM): NaCl 140, KCl 5.4, HEPES 10, CaCl2 1.3, glucose 20, pH 7.4; osmolarity, 305-315 mOsm. NMDA-induced currents were applied by NMDA through perfusion fast-step (Warner Instruments). With perfusion fast-step system, NMDA application was achieved by using a two-square barrel glass tubing and depending on the age of the cultured neurons, CNQX (10 μM), TTX (0.5 μM) or BIC (10 μM) were added in the extracellular solution to minimize the activation of ionotropic glutamate receptors and voltage-gated sodium channels, respectively. All experiments were performed at room temperature. Recordings from at least six HEK293 cells/neurons were performed for all active compounds. Data were pooled among HEK293 cells or primary neurons and composite dose-response data were fitted by the equation Percentage Response=100×Relative Efficacy/[1+(EC50/Concentration)nH], where EC50 is the concentration of agonist that produces a half-maximal response, relative efficacy is the response at maximally effective concentration relative to the maximal response of glutamate, and nH is the Hill slope.
GluN1/GluN2A NMDAR subtypes are an attractive target for positive allosteric modulation. The present inventors employed in silico computational drug discovery methods to conduct a virtual screen of purchasable lead-like compounds from the ZINC database (Irwin, J., et al. Abstr Pap Am Chem Soc (2005) 230:U1009) and some synthetic compounds to identify potential GluN1/GluN2A-NMDAR modulators. The in silico methods included large-scale docking against the interstice interface of the GluN1/GluN2A heterodimer and consensus scoring to select compounds for empirical testing. Candidate compounds were further screened by using GluN1/GluN2A transiently transfected in human embryonic kidney (HEK293) cells and tested by whole-cell patch clamp recordings.
The inventors used transiently transfected HEK293 cells expressing either GluN1/GluN2A or GluN1/GluN2B NMDARs and tested by whole-cell voltage patch clamp recordings to see whether selected compounds were controlling the subtype selectivity profile of the drugs.
Whole-cell patch clamp recordings were performed to measure glutamate evoked currents with chloride-based pipette solutions at a holding potential of −60 mV.

[1] = HEK293, Table 2, read-out: Normalized Potentiation GluN1/GluN2B
[2] = HEK293, Table 2, read-out: Normalized Potentiation GluN1/GluN2A

| SMILES | Normalized Potentiation (GluN1/GluN2A NMDARs) | also measured |
| --- | --- | --- |
| O=C(N/N=C/c1cccc(O)c1O)c1ccc(O)cc1 [Npam68, (E)-N′-(2,3-dihydroxybenzylidene)-4-hydroxybenzohydrazide] | – | activation at 50 µM (GluN1/GluN2B NMDARs; [1]): -56.6 ± 7.45%; activation at 50 µM (GluN1/GluN2A NMDARs; [2]): 35.1 ± 4.85% |
| O=C(N/N=C/c1cccc(O)c1O)c1cccc([N+](=O)[O-])c1 [Npam64, (E)-N′-(2,3-dihydroxybenzylidene)-3-nitrobenzohydrazide] | – | activation at 100 µM (GluN1/GluN2B NMDARs; HEK293, Table 2, 100 μM, read-out: Normalized Potentiation GluN1/GluN2B): -54.6 ± 5.87%; activation at 100 µM (GluN1/GluN2A NMDARs; HEK293, Table 2, 100 μM, read-out: Normalized Potentiation GluN1/GluN2A): 28.2 ± 2.47% |
| CC(C(O)c1ccc(O)cc1)N1CCC(Cc2ccccc2)CC1 (stereo not shown) [ifenprodril, reference compound] | – | Block of GluN1/GluN2B NMDAR currents (GluN1/GluN2B NMDARs): successfully blocked |
| O=C(N/N=C/c1cccc(O)c1O)c1ccc(Br)cc1 [Npam73, (E)-4-bromo-N′-(2,3-dihydroxybenzylidene)benzohydrazide] | – | activation at 50 µM (GluN1/GluN2B NMDARs; [1]): -49.9 ± 6.87%; activation at 50 µM (GluN1/GluN2A NMDARs; [2]): 30.7 ± 4.76% |
| Cc1cc2ccccc2cc1C(=O)N/N=C/c1cccc(O)c1O [Npam65, (E)-N′-(2,3-dihydroxybenzylidene)-3-methyl-2-naphthohydrazide] | – | activation at 50 µM (GluN1/GluN2B NMDARs; [1]): -46.9 ± 8.94%; activation at 50 µM (GluN1/GluN2A NMDARs; [2]): 51.8 ± 6.55% |
| COc1cccc(/C=N/NC(=O)c2ccccc2)c1O [Npam69, (E)-N′-(2-hydroxy-3-methoxybenzylidene)benzohydrazide] | – | activation at 50 µM (GluN1/GluN2B NMDARs; [1]): -34 ± 2.47%; activation at 50 µM (GluN1/GluN2A NMDARs; [2]): 11.1 ± 1.98% |
| O=C(N/N=C/c1cccc(O)c1O)c1ccc(Cl)cc1Cl [Npam36, (E)-2,4-dichloro-N′-(2,3-dihydroxybenzylidene)benzohydrazide] | 4.02 ± 4.79% | – |
| CCOc1cc(Br)cc(/C=N/NC(=O)c2ccc(C)cc2Cl)c1O [Npam46, (E)-N′-(5-bromo-3-ethoxy-2-hydroxybenzylidene)-2-chloro-4-methylbenzohydrazide] | 466.57 ± 37.78% | EC50 (GluN1/GluN2A NMDARs): 0.25 µM |
| CCOc1cc(Br)cc(/C=N/NC(=O)c2cccc(Br)c2)c1O [Npam38, (E)-3-bromo-N′-(5-bromo-3-ethoxy-2-hydroxybenzylidene)benzohydrazide] | 426.44 ± 87.65% | EC50 (GluN1/GluN2A NMDARs): 0.19 µM |
| COc1cc(Br)c(Br)c(/C=N/NC(=O)c2ccccc2Cl)c1O [Npam45, (E)-2-chloro-N′-(2,3-dibromo-6-hydroxy-5-methoxybenzylidene)benzohydrazide] | 284.50 ± 85.20% | – |
| CCOc1cc(Br)cc(/C=N/NC(=O)c2ccccc2Cl)c1O [Npam54, N′-[(1E)-(5-bromo-3-ethoxy-2-hydroxyphenyl)methylidene]-2-chlorobenzohydrazide] | 43.41 ± 13.48% | – |
| COc1cc(Br)cc(/C=N/NC(=O)c2cccc(Br)c2)c1O [Npam47, (E)-3-bromo-N′-(5-bromo-2-hydroxy-3-methoxybenzylidene)benzohydrazide] | 224.79 ± 24.78% | – |
| CCOc1cc(Cl)c(Cl)c(/C=N/NC(=O)c2ccccc2C)c1O [Npam17, (E)-N′-(2,3-dichloro-5-ethoxy-6-hydroxybenzylidene)-2-methylbenzohydrazide] | 130.54 ± 13.63% | – |
| CCOc1cc(Cl)c(Cl)c(/C=N/NC(=O)c2ccc(C)cc2Cl)c1O [Npam44, (E)-2-chloro-N′-(2,3-dichloro-5-ethoxy-6-hydroxybenzylidene)-4-methylbenzohydrazide] | 443.25 ± 83.42% | EC50 (GluN1/GluN2A NMDARs): 0.15 µM |
| CCOc1cc(Cl)c(Cl)c(/C=N/NC(=O)c2ccc(OC)cc2)c1O [Npam48, (E)-N′-(2,3-dichloro-5-ethoxy-6-hydroxybenzylidene)-4-methoxybenzohydrazide] | 441.05 ± 150.41% | EC50 (GluN1/GluN2A NMDARs): 0.1 µM |
| CCOc1cc(Br)cc(/C=N/NC(=O)c2ccccc2C)c1O [Npam82, (E)-N′-(5-bromo-3-ethoxy-2-hydroxybenzylidene)-2-methylbenzohydrazide] | 196.21 ± 35.93% | – |
| C=CCc1cc(/C=N/NC(=O)c2ccccc2Br)c(O)c(OC)c1 [Npam03, (E)-N′-(5-allyl-2-hydroxy-3-methoxybenzylidene)-2-bromobenzohydrazide] | 97.62 ± 6.03% | – |
| O=C(N/N=C/c1cccc(O)c1O)c1cccc(Br)c1 [Npam16, (E)-3-bromo-N′-(2,3-dihydroxybenzylidene)benzohydrazide] | 36.90 ± 5.62% | – |
| CCOc1cc(Cl)c(Cl)c(/C=N/NC(=O)c2ccccc2)c1O [Npam55, (E)-N′-(2,3-dichloro-5-ethoxy-6-hydroxybenzylidene)benzohydrazide] | 32.10 ± 3.02% | – |
| CCOc1cc(Cl)c(Cl)c(/C=N/NC(=O)c2cccc(Br)c2C)c1O [Npam50, 3-bromo-N′-[(1E)-(2,3-dichloro-5-ethoxy-6-hydroxyphenyl)methylidene]-2-methylbenzohydrazide] | 441.11 ± 36.50% | EC50 (GluN1/GluN2A NMDARs): 0.25 µM |
| CCOc1cc(Cl)cc(/C=N/NC(=O)c2ccccc2Br)c1O [Npam18, (E)-2-bromo-N′-(5-chloro-3-ethoxy-2-hydroxybenzylidene)benzohydrazide] | 213.58 ± 43.58% | – |
| CCOc1cc(Br)cc(/C=N/NC(=O)c2ccccc2Br)c1O [Npam58, (E)-2-bromo-N′-(5-bromo-3-ethoxy-2-hydroxybenzylidene)benzohydrazide] | 163.60 ± 13.94% | Selectivity for GluN1/GluN2A versus GluN1/GluN2B NMDARs (GluN1/GluN2A NMDARs; FIG. 2, HEK293 cells expressing GluN1/GluN2A and GluN1/GluN2B): selective for GluN1/GluN2A NMDARs; EC50 (GluN1/GluN2A NMDARs): 0.8 µM |
| CCOc1cc(Cl)cc(/C=N/NC(=O)c2ccccc2Br)c1O [Npam80, (E)-2-bromo-N′-(5-chloro-3-ethoxy-2-hydroxybenzylidene)benzohydrazide] | 213.60 ± 29.34% | – |
| CCOc1cc(Cl)c(Cl)c(/C=N/NC(=O)NC(=O)COc2c(C)ccc(C)c2C)c1O [Npam08, (E)-2-(2,3-dichloro-5-ethoxy-6-hydroxybenzylidene)-N-(2-(2,3,6-trimethylphenoxy)acetyl)hydrazinecarboxamide] | 362.76 ± 38.44% | – |
| CCOc1cc(Br)cc(/C=N/NC(=O)c2ccc3c(c2)OCCO3)c1O [Npam23, (E)-N′-(5-bromo-3-ethoxy-2-hydroxybenzylidene)-2,3-dihydrobenzo[b][1,4]dioxine-6-carbohydrazide] | 87.00 ± 6.48% | – |
| CCOc1cc(Cl)c(Cl)c(/C=N/NC(=O)c2cc(Cl)ccc2Br)c1O [Npam49, 2-bromo-5-chloro-N′-[(1E)-(2,3-dichloro-5-ethoxy-6-hydroxyphenyl)methylidene]benzohydrazide] | 530.06 ± 114.00% | EC50 (GluN1/GluN2A NMDARs): 0.19 µM |
| COc1cc(Br)cc(/C=N/NC(=O)c2ccc(NC(=O)c3ccc(C)cc3)cc2)c1O [Npam25, (E)-N-(4-(2-(5-bromo-2-hydroxy-3-methoxybenzylidene)hydrazinecarbonyl)phenyl)-4-methylbenzamide] | −14.32 ± 2.20% | – |
